Measurements from patent US8183364B2, “Substituted porphyrins” (Duke University, priority 2004, dated 2012).
Entries after “also recorded” stand apart in the source; their conditions may differ. Marks after values point to notes of the source that are not given here.

Tests used:
[1] = Thin-layer chromatography on silica gel (retention factor Rf, lipophilicity); assay type: physicochemical; settings: Rf; vs methyl porphyrin
Experimental: Uv/vis spectra of porphyrin ligands and their Mn complexes were taken on a Shimadzu UV-2501-PC spectrophotometer at 25° C. Thin-layer chromatography of ligands and Mn complexes was done using silica gel plates with KNO3satH2O/H2O/acetonitrile=1/1/8.
Thin-layer chromatography. All new methoxyporphyrins are more lipophilic than MnTE-2-PyP^5+ and MnTDE-2-ImP^5+.

[2] = system: SOD-deficient JI132 E. coli; experiment: Aerobic growth of SOD-deficient E. coli; assay type: cell-based
Experimental: (§1) Aerobic growth of E. coli. Bacterial strains of E. coli used were wild type AB1157 (F-thr-1 leu-1 proA2 his-4 argE3 thr-1 lacY1 galK2 rpsL supE44 ara-14 xyl-15 mtl-1 tsx-33) and SOD-deficient JI132 (same as AB1157 plus (sodA::mudPR13)25 (sodB-kan)1-Δ2. Culture media were prepared as follows. M9 medium: 6 g/L Na2HPO4, 3 g/L KH2PO4, 0.5 g/L NaCl, 1 g/L NH4Cl, 2 mM MgSO4, 0.1 mM CaCl2, adjusted to pH 7.4 with NaOH, and supplemented with 0.2% glucose, 3 mg/L each of D-panthotenic acid and thiamine. M9CA medium contained M9 medium plus 0.2% casamino acids. 5-amino acid (5AA) minimal medium contained M9 medium plus 0.5 mM each of threonine, leucine, histidine, proline and arginine (Faulkner et al, J. Biocl. Chem. 269:23471 (1994)).
(§2) AB 1157 and 31132 were precultured overnight aerobically in M9CA medium at 37° C. and were then diluted to 3×10^7 cells/mL into 5 mL M9CA medium. JI132 was precultured in the presence of 20 μg/mL chloramphenicol and 500 μg/mL kanamycin. When the cells are transferred from M9CA medium to 5AA minimal medium cultures were first centrifuged and washed twice with the 5AA medium before final dilution in it. The centrifugation was conducted at room temperature to avoid temperature shocks. Cultures without and with Mn porphyrins (0.1 to 30 μM) were grown aerobically in 5 mL volume in test tubes in a thermostated orbital shaker (45° angle, 200 rpm) at 37° C.). Rates of growth were followed turbidimetrically at 700 nm to minimize interference from the absorbance of test compounds.

[3] = system: wild type AB1157 E. coli; experiment: Aerobic growth of wild type E. coli (toxicity); assay type: cell-based; settings: for toxicity to E. coli at 100-fold lower concentration: 0.3 μM; for growth of wild type E. coli: 5AA minimal medium; for toxicity to wild type E. coli / concentration at which toxicity on the parental (wild type) strain is exerted / becomes observable: M9CA medium; for toxicity to wild type E. coli: 30 μM (up to 30 μM); for concentration at which toxicity on the parental (wild type) strain is exerted / becomes observable: range 0.1 to 30 μM
Experimental: as §1, §2

[4] = cited from earlier work; for Metal-centered redox potential E1/2: Mn(III)/Mn(II), 0.1 M NaCl, 0.05 M phosphate buffer, pH 7.8, data from Batinic-Haberle et al 2002
[5] = pH 7.8, (22 ± 1) °C; data from Batinic-Haberle et al 2002 (MnTE-2-PyP: Inorg. Chem. 40:726 (2001)); cited from earlier work
[6] = data from Batinic-Haberle et al 2002, cited from earlier work; for Rf (compound path/solvent path), metal-free porphyrin (in parenthesis): metal-free ligand of the named Mn porphyrin; for Rf (compound path/solvent path), Mn complex: silica gel TLC, KNO3-saturated H2O/H2O/acetonitrile = 1/1/8
[7] = previously observed (Batinic-Haberle et al 2002), compared with imidazolyl porphyrins; cited from earlier work
[8] = pH 7.8; cited from earlier work
[9] = Oxidative degradation in the presence of ascorbic acid under aerobic conditions; assay type: physicochemical; settings: pH 7.8 (0.05 M tris buffer)
Experimental: Under these conditions porphyrins underwent oxidative degradation. As previously observed (Batinic-Haberle et al, J. Chem. Soc., Dalton Trans., pgs. 2689-2696 (2002)), those porphyrins that are of more positive E1/2 are stabilized in +2 oxidation state and are less prone to oxidative damage. Accordingly, 27% and 24% of MnTE-2-PyP^5+ and MnTMOE-2-PyP^5+ undergo degradation within 2 hours, but only 2% of MnTM,MOE-2-ImP^5+ and MnTDMOE-2-ImP^5+ and 3% of MnTDE-2-ImP^5+.

[10] = Kinetic salt effect on O2.^− dismutation by cytochrome c assay; assay type: biochemical; settings: 0.05 M phosphate buffer, pH 7.8, 0-0.4 M NaCl
Experimental: Kinetic salt effect. The dependence of the catalytic rate constant for the O2.^− dismutation upon ionic strength was determined by cytochrome c assay (McCord and Fridovich, J. Biol. Chem. 244:6049 (1969)) in 0.05 M phosphate buffer, pH 7.8 with NaCl ranging from 0 to 0.4 M. In doing this, the effect of ionic strength on the rate of the O2.^−/cytochrome c reaction was corrected for.
Kinetic salt effect. The effect of the ionic strength (μ) on the catalytic rate constant was assessed using eq which is based on Debye-Huckel relation (Hambright et al, J. Porphyrins Phthalocyanines 7:139-146 (2003)) for the effect of the ionic strength of the solution on the activity coefficient of an ion. log k=log kref+2AzAzBμ^1/2/(1+μ^1/2) The k is the rate constant at any given ionic strength, while kref is the rate constant at μ=0. The A is a collection of physical constants with a value of 0.509 and zA and zB are the charges of the reacting species. The equation predicts a linear plot of log k vs μ^1/2/(1+μ^1/2). Eq assumes a coefficient of 1.0 (βai) for μ^1/2 in the denominator, i.e., the distance of the closest approach, ai to be 3 A and β is a physical constant, […]. It is doubtful whether great significance can be attributed to the ai, thus to the product zAzB (Hambright et al, J. Porphyrins Phthalocyanines 7:139-146 (2003)), especially so in the light of the bulkiness, high charge and solvation shell of the metalloporphyrins. Accounting for the mono- and diprotonated phosphates as the major species at pH 7.8 (pKa=7.2), and the concentration of the NaCl, the ionic strength was calculated using equation μ=½ Σ mizi^2 where mi is the molality and zi the charge of the given ion.
The slopes of the plots are −6.48 (MnTE-2-PyP^5+), −7.02 (MnTMOE-2-PyP^5+), −7.38 (MnTDMOE-2-ImP^5+), and −4.15 (MnTnBu-2-PyP^5+). As expected (Hambright et al, J. Porphyrins Phthalocyanines 7:139-146 (2003)), when the reactants are ions of opposite charges, the higher the ionic strength of the solution the lower the rate constants, i.e. the slopes are negative. The slopes of the plots indicate clearly the impact of the local dielectric constant on the kcat. The kcat of the most lipophilic compound, MnTnBu-2-PyP^5+ is 40% less sensitive to the changes in ionic strength of the solution than is the kcat of its methoxyethyl analogue, MnTMOE-2-PyP^5+.

Row | Compound | toxicity to E. coli at 100-fold lower concentration [3] | growth of wild type E. coli ([3]; 3 μM) | growth of wild type E. coli ([3]; up to 25 μM) | concentration at which toxicity on the parental (wild type) strain is exerted / becomes observable [3] [nM] | Metal-centered redox potential E1/2 [4] | log kcat for O2^− dismutation [5] | Rf (compound path/solvent path), metal-free porphyrin (in parenthesis) [6] | Rf (compound path/solvent path), Mn complex [6] | stability towards oxidative degradation [7] | aerobic growth of SOD-deficient E. coli ([2]; 5AA minimal medium, 25 μM) | also measured
1 | CCCCCCCC[n+]1ccccc1-c1c2nc(c(-c3cccc[n+]3CCCCCCCC)c3ccc([n-]3)c(-c3cccc[n+]3CCCCCCCC)c3nc(c(-c4cccc[n+]4CCCCCCCC)c4ccc1[n-]4)C=C3)C=C2.[Mn+3] [MnTnOct-2-PyP^5+] | mostly eliminated | completely inhibited growth | toxic | 300 | +367 mV vs NHE | 7.71 | 0.86 | 0.08 | same level of stability |  | lipophilicity higher than methyl porphyrin [1]: ~10 fold; protection of SOD-deficient E. coli at 0.3 μM compared with 10 μM methyl, ethyl (and MnTDMOE-2-ImP) porphyrins ([2]; M9CA medium, listed as n-octyl): equally protective; also recorded: the same level of protection; concentration at which the compound facilitates growth of SOD-deficient strain (utility) ([2]; M9CA medium, range 0.1 to 30 μM): ≤ 0.3 µM; protection of SOD-deficient E. coli higher than methyl porphyrin ([2]; vs methyl porphyrin): 30 fold; toxicity to wild type E. coli ([3]; listed as n-octyl): prevented wild type E. coli to grow; also recorded: prevent wild type E. coli from growing; toxicity of metal-free vs Mn(III) complex ([3]; separate experiment): equally toxic
2 | CCCCCC[n+]1ccccc1-c1c2nc(c(-c3cccc[n+]3CCCCCC)c3ccc([n-]3)c(-c3cccc[n+]3CCCCCC)c3nc(c(-c4cccc[n+]4CCCCCC)c4ccc1[n-]4)C=C3)C=C2.[Mn+3] [MnTnHex-2-PyP^5+] | mostly eliminated | slowed the growth | toxic | 3000 | +314 mV vs NHE | 7.48 | 0.63 | 0.57 | same level of stability | failed to do so | aerobic growth of SOD-deficient E. coli ([2]; 5AA minimal medium, 3 μM): most effective; protection of SOD-deficient E. coli at 0.3 μM compared with 10 μM methyl, ethyl (and MnTDMOE-2-ImP) porphyrins ([2]; M9CA medium, listed as n-hexyl): equally protective; also recorded: the same level of protection; aerobic growth of SOD-deficient E. coli ([2]; M9CA medium, 1 and 3 μM): most effective; aerobic growth of SOD-deficient E. coli ([2]; M9CA medium, 10 and 30 μM): progressively less effective; toxicity to wild type E. coli ([3]; listed as n-hexyl): prevented wild type E. coli to grow; also recorded: prevent wild type E. coli from growing
3 | Cu,Zn-SOD: superoxide dismutase enzyme |  |  |  |  |  |  |  |  |  |  | E1/2 ([4]; literature value for the enzyme): ~+300 mV vs NHE; equal rate constants of reduction and oxidation of O2.^− [8]: 2e+09 M⁻¹ s⁻¹
4 | CC[n+]1ccccc1-c1c2nc(c(-c3cccc[n+]3CC)c3ccc([n-]3)c(-c3cccc[n+]3CC)c3nc(c(-c4cccc[n+]4CC)c4ccc1[n-]4)C=C3)C=C2.[Mn+3] [MnTE-2-PyP^5+] |  |  |  |  | +228 mV vs NHE | 7.73^e | 0.21 | 0.13 |  | most effective | degradation within 2 hours [9]: 27%; slope of log kcat vs μ^1/2/(1+μ^1/2) [10]: −6.48; protection of SOD-deficient E. coli ([2]; M9CA medium, 1 μM): low protection; protection of SOD-deficient E. coli ([2]; M9CA medium, 30 μM): either much higher or near full protection; facilitation of aerobic growth of SOD-deficient E. coli, dependence on concentration ([2]; M9CA medium, 1-30 μM): concentration-dependent manner
